Experimental data reported in ChEMBL document CHEMBL4819085, “Dipyridyl-substituted thiosemicarbazone as a potent broad-spectrum inhibitor of metallo-β-lactamases” (Bioorg Med Chem, 2021).
Values after ≈ are worked out from the molar mass of the structure shown. Active and inactive are the calls of the source. The calls are words filed in the database; no cut-off is given here.

Experiments:
Escherichia coli [1] = assay: Antibacterial activity against Escherichia coli 01 assessed as reduction in bacterial growth incubated for 24 hrs by broth microdilution method; type: functional
Klebsiella pneumoniae [2] = assay: Antibacterial activity against Klebsiella pneumoniae assessed as reduction in bacterial growth incubated for 24 hrs by broth microdilution method; type: functional
Escherichia coli [3] = assay: Antibacterial activity against Escherichia coli 04 assessed as reduction in bacterial growth incubated for 24 hrs by broth microdilution method; type: functional
Escherichia coli [4] = assay: Antibacterial activity against Escherichia coli 24 assessed as reduction in bacterial growth incubated for 24 hrs by broth microdilution method; type: functional
Pseudomonas aeruginosa = assay: Antibacterial activity against Carbapenem-resistant Pseudomonas aeruginosa assessed as reduction in bacterial growth incubated for 24 hrs by broth microdilution method; type: functional
Escherichia coli [5] = assay: Antibacterial activity against Escherichia coli 06 assessed as reduction in bacterial growth incubated for 24 hrs by broth microdilution method; type: functional
Enterococcus faecium = assay: Antibacterial activity against vancomycin-resistant Enterococcus faecium assessed as reduction in bacterial growth incubated for 24 hrs by broth microdilution method; type: functional
Escherichia coli [6] = assay: Antibacterial activity against Escherichia coli 08 assessed as reduction in bacterial growth incubated for 24 hrs by broth microdilution method; type: functional
Staphylococcus aureus = assay: Antibacterial activity against methicillin-resistant Staphylococcus aureus assessed as reduction in bacterial growth incubated for 24 hrs by broth microdilution method; type: functional
[7] = Inhibition of bacterial ImiS expressed in Escherichia coli BL21 (DE3) using meropenem as substrate incubated for 1 hr by spectrometry analysis; design: species or system Bacteria
[8] = Inhibition of bacterial VIM-2 expressed in Escherichia coli BL21 (DE3) using meropenem as substrate incubated for 1 hr by spectrometry analysis; design: species or system Bacteria
[9] = Inhibition of bacterial NDM-1 expressed in Escherichia coli BL21 (DE3) using meropenem as substrate incubated for 1 hr by spectrometry analysis; design: species or system Bacteria
[10] = Inhibition of bacterial L1 using meropenem as substrate incubated for 1 hr by spectrometry analysis; design: species or system Bacteria
[11] = Inhibition of bacterial IMP-1 using meropenem as substrate incubated for 1 hr by spectrometry analysis; design: species or system Bacteria
Escherichia coli [12] = assay: Inhibition of Escherichia coli IMP-1 assessed as reduction in bacterial growth incubated for 24 hrs by broth microdilution method
Escherichia coli [13] = assay: Inhibition of Escherichia coli L1 assessed as reduction in bacterial growth incubated for 24 hrs by broth microdilution method
Escherichia coli [14] = assay: Inhibition of Escherichia coli ImiS assessed as reduction in bacterial growth incubated for 24 hrs by broth microdilution method
Klebsiella pneumoniae [15] = assay: In vivo antibacterial activity against Klebsiella pneumoniae producing NDM-1 infected in mouse assessed as reduction in bacterial load in spleen at 10 mg/kg, ip; type: functional, organism-based
[16] = biological target: Metallo-beta-lactamase (Escherichia coli) (UniProt Q5U7L7); assay: Inhibition of Escherichia coli VIM-2 assessed as reduction in bacterial growth incubated for 24 hrs by broth microdilution method
Bacteria = assay: Inhibition of bacterial NDM-1 expressed in Escherichia coli BL21 (DE3) at 20 uM using meropenem as substrate incubated for 1 hr by spectrometry analysis relative to control
Escherichia coli [17] = assay: Inhibition of Escherichia coli NDM-1 assessed as reduction in bacterial growth incubated for 24 hrs by broth microdilution method
Klebsiella pneumoniae [18] = assay: In vivo antibacterial activity against Klebsiella pneumoniae producing NDM-1 infected in mouse assessed as reduction in bacterial load in liver at 10 mg/kg, ip; type: functional, organism-based

Structure (SMILES) | MIC (Escherichia coli [1]) | MIC (Klebsiella pneumoniae [2]) | MIC (Escherichia coli [3]) | MIC (Escherichia coli [4]) | MIC (Pseudomonas aeruginosa) | MIC (Escherichia coli [5]) | MIC (Enterococcus faecium) | MIC (Escherichia coli [6]) | MIC (Staphylococcus aureus) | further results
CO/N=C(\C(=O)N[C@@H]1C(=O)N2C(C(=O)O)=C(CSc3nc(=O)c(O)nn3C)CS[C@H]12)c1csc(N)n1 [CEFTRIAXONE] | 16000 µg/mL (≈ 28.9 mM) | 8190 µg/mL (≈ 14.8 mM) | 16000 µg/mL (≈ 28.9 mM) | 16000 µg/mL (≈ 28.9 mM) | 64 µg/mL (≈ 0.115 mM) | 16000 µg/mL (≈ 28.9 mM) | 512 µg/mL (≈ 0.923 mM) | 16000 µg/mL (≈ 28.9 mM) | 4100 µg/mL (≈ 7.39 mM) | 
CO/N=C(\C(=O)N[C@@H]1C(=O)N2C(C(=O)O)=C(COC(C)=O)CS[C@H]12)c1csc(N)n1 [CEFOTAXIME] | 16000 µg/mL (≈ 35.1 mM) | 16000 µg/mL (≈ 35.1 mM) | > 16000 µg/mL | 16000 µg/mL (≈ 35.1 mM) | > 16000 µg/mL | 8190 µg/mL (≈ 18 mM) | 4100 µg/mL (≈ 8.99 mM) | 8190 µg/mL (≈ 18 mM) | 1020 µg/mL (≈ 2.25 mM) | 
CC1(C)S[C@@H]2[C@H](NC(=O)[C@H](N)c3ccccc3)C(=O)N2[C@H]1C(=O)O [AMPICILLIN] | > 16000 µg/mL | 8190 µg/mL (≈ 23.4 mM) | > 16000 µg/mL | 16000 µg/mL (≈ 45.8 mM) | > 16000 µg/mL | 8190 µg/mL (≈ 23.4 mM) | > 16000 µg/mL | > 16000 µg/mL | > 16000 µg/mL | 
Cc1nnc(SCC2=C(C(=O)O)N3C(=O)[C@@H](NC(=O)Cn4cnnn4)[C@H]3SC2)s1 [CEFAZOLIN] | 16000 µg/mL (≈ 35.2 mM) | 4100 µg/mL (≈ 9.01 mM) | 4100 µg/mL (≈ 9.01 mM) | 4100 µg/mL (≈ 9.01 mM) | > 16000 µg/mL | 4100 µg/mL (≈ 9.01 mM) | 8130 µg/mL (≈ 17.9 mM) | 4100 µg/mL (≈ 9.01 mM) | 4100 µg/mL (≈ 9.01 mM) | 
O=C(O)C(=O)CBr [BROMOPYRUVATE] |  |  |  |  |  |  |  |  |  | IC50 [7]: > 40 µM; IC50 [8]: 18.7 µM; IC50 [9]: 2.57 µM; IC50 [10]: > 40 µM; IC50 [11]: 28.9 µM
C[C@@H](O)[C@H]1C(=O)N2C(C(=O)O)=C(S[C@@H]3CN[C@H](C(=O)N(C)C)C3)[C@H](C)[C@H]12 [MEROPENEM] | 128 µg/mL (≈ 0.334 mM) | 256 µg/mL (≈ 0.668 mM) | 64 µg/mL (≈ 0.167 mM) | 128 µg/mL (≈ 0.334 mM) | 8 µg/mL (≈ 0.0209 mM) | 128 µg/mL (≈ 0.334 mM) | 256 µg/mL (≈ 0.668 mM) | 128 µg/mL (≈ 0.334 mM) | 64 µg/mL (≈ 0.167 mM) | MIC (Escherichia coli [12]): 32 µg/mL (≈ 0.0834 mM); MIC (Escherichia coli [13]): 128 µg/mL (≈ 0.334 mM); MIC (Escherichia coli [14]): 64 µg/mL (≈ 0.167 mM); inhibition (Klebsiella pneumoniae [15]): Active; MIC [16]: 64 µg/mL (≈ 0.167 mM); inhibition (Bacteria): > 90%; MIC (Escherichia coli [17]): 128 µg/mL (≈ 0.334 mM); inhibition (Klebsiella pneumoniae [18]): Active
